Assay results from BigSolDB 2.1.

CC(=O)c1c(C)c([N+](=O)[O-])c(C(C)(C)C)c([N+](=O)[O-])c1C
solubility (mole fraction)
Details | 273.15 K | 278.15 K | 283.15 K | 288.15 K | 293.15 K | 298.15 K | 303.15 K | 308.15 K | 313.15 K
in ethanol | 0.0016 | 0.00198 | 0.00241 | 0.00295 | 0.00354 | 0.00426 | 0.00512 | 0.00619 | 0.0074
in ethyl acetate | 0.055 | 0.0641 | 0.0742 | 0.0852 | 0.0954 | 0.111 | 0.122 | 0.139 | 0.156
in methanol | 0.00108 | 0.00128 | 0.00157 | 0.00187 | 0.00225 | 0.00272 | 0.00326 | 0.00387 | 0.00458
in n-butanol | 0.0022 | 0.00286 | 0.00368 | 0.00449 | 0.00533 | 0.00666 | 0.00812 | 0.00972 | 0.012
